Laboratory results reported in US6787525B1, “Glyceryl nucleotides, method for the production thereof and their use” (priority 1998, dated 2004).

Key:
SR = experiment: In vitro cytostatic effect (SRB): SR, Leukemia; details: for CC50: read-out: LC50, 48-hour incubation
MOLT-4 = experiment: In vitro cytostatic effect (SRB): MOLT-4, Leukemia; details: for GI50 / TGI: 48-hour incubation; for CC50: read-out: LC50, 48-hour incubation
CCRF-CEM = experiment: In vitro cytostatic effect (SRB): CCRF-CEM, Leukemia; details: for CC50: read-out: LC50, 48-hour incubation
LOX IMVI = experiment: In vitro cytostatic effect (SRB): LOX IMVI, Melanoma; details: for GI50 / TGI: 48-hour incubation; for CC50: read-out: LC50, 48-hour incubation
MALME-3M = experiment: In vitro cytostatic effect (SRB): MALME-3M, Melanoma; details: for GI50 / TGI: 48-hour incubation; for CC50: read-out: LC50, 48-hour incubation
SK-MEL-2 = experiment: In vitro cytostatic effect (SRB): SK-MEL-2, Melanoma; details: for GI50 / TGI: 48-hour incubation; for CC50: read-out: LC50, 48-hour incubation
SK-MEL-5 = experiment: In vitro cytostatic effect (SRB): SK-MEL-5, Melanoma; details: for GI50 / TGI: 48-hour incubation; for CC50: read-out: LC50, 48-hour incubation
UACC-257 = experiment: In vitro cytostatic effect (SRB): UACC-257, Melanoma; details: for GI50 / TGI: 48-hour incubation; for CC50: read-out: LC50, 48-hour incubation
RPMI-8226 = experiment: In vitro cytostatic effect (SRB): RPMI-8226, Leukemia; details: for GI50 / TGI: 48-hour incubation; for CC50: read-out: LC50, 48-hour incubation
HOP-92 = experiment: In vitro cytostatic effect (SRB): HOP-92, Lung cancer
SN12C = experiment: In vitro cytostatic effect (SRB): SN12C, Kidney cancer; details: for GI50 / TGI: 48-hour incubation; for CC50: read-out: LC50, 48-hour incubation
TK-10 = experiment: In vitro cytostatic effect (SRB): TK-10, Kidney cancer; details: for GI50 / TGI: 48-hour incubation; for CC50: read-out: LC50, 48-hour incubation
UO-31 = experiment: In vitro cytostatic effect (SRB): UO-31, Kidney cancer
MDA-N = experiment: In vitro cytostatic effect (SRB): MDA-N, Breast cancer; details: for GI50 / TGI: 48-hour incubation; for CC50: read-out: LC50, 48-hour incubation
NCI-H226 = experiment: In vitro cytostatic effect (SRB): NCI-H226, Lung cancer; details: for GI50 / TGI: 48-hour incubation; for CC50: read-out: LC50, 48-hour incubation
CAKI-1 = experiment: In vitro cytostatic effect (SRB): CAKI-1, Kidney cancer; details: for GI50 / TGI: 48-hour incubation; for CC50: read-out: LC50, 48-hour incubation
BT-549 = experiment: In vitro cytostatic effect (SRB): BT-549, Breast cancer; details: for GI50 / TGI: 48-hour incubation; for CC50: read-out: LC50, 48-hour incubation
A549/ATCC = experiment: In vitro cytostatic effect (SRB): A549/ATCC, Lung cancer; details: for GI50 / TGI: 48-hour incubation; for CC50: read-out: LC50, 48-hour incubation
RXF 393 = experiment: In vitro cytostatic effect (SRB): RXF 393, Kidney cancer; details: for GI50 / TGI: 48-hour incubation; for CC50: read-out: LC50, 48-hour incubation
KM12 = experiment: In vitro cytostatic effect (SRB): KM12, Intestinal cancer; details: for GI50 / TGI: 48-hour incubation; for CC50: read-out: LC50, 48-hour incubation
OVCAR-3 = experiment: In vitro cytostatic effect (SRB): OVCAR-3, Ovarian cancer; details: for GI50 / TGI: 48-hour incubation; for CC50: read-out: LC50, 48-hour incubation
OVCAR-4 = experiment: In vitro cytostatic effect (SRB): OVCAR-4, Ovarian cancer; details: for GI50 / TGI: 48-hour incubation; for CC50: read-out: LC50, 48-hour incubation
OVCAR-5 = experiment: In vitro cytostatic effect (SRB): OVCAR-5, Ovarian cancer; details: for GI50 / TGI: 48-hour incubation; for CC50: read-out: LC50, 48-hour incubation
HCT-15 = experiment: In vitro cytostatic effect (SRB): HCT-15, Intestinal cancer; details: for GI50 / TGI: 48-hour incubation
COLO205 = experiment: In vitro cytostatic effect (SRB): COLO205, Intestinal cancer; details: for GI50 / TGI: 48-hour incubation; for CC50: read-out: LC50, 48-hour incubation
NCI/ADR-RES = experiment: In vitro cytostatic effect (SRB): NCI/ADR-RES, Breast cancer; details: for CC50: read-out: LC50, 48-hour incubation
SF-268 = experiment: In vitro cytostatic effect (SRB): SF-268, Cancer of the central nervous system; details: for GI50 / TGI: 48-hour incubation; for CC50: read-out: LC50, 48-hour incubation
SNB-75 = experiment: In vitro cytostatic effect (SRB): SNB-75, Cancer of the central nervous system; details: for GI50 / TGI: 48-hour incubation; for CC50: read-out: LC50, 48-hour incubation
[1] = read-out: LC50, 48-hour incubation

## CCCCCCCCCCCCCCCCCCOC(COP(=O)(O)OCC1OC(n2cc(F)c(=O)[nH]c2=O)CC1O)COP(=O)(O)OCC1OC(n2ccc(N)nc2=O)C(O)C1O (racemic) [NSC 698688-A/1, arabinocytidylyl-(5′→1)-2-O-octadecyl-rac-glycerylyl-(3→5′)-5-fluoro-2′-deoxyuridine]
SR; 48-hour incubation
  TGI: >1.00E − 04 mol/l
SR
  CC50: > 100 µM
MOLT-4
  GI50: 467 nM
  TGI: >1.00E − 04 mol/l
  CC50: > 100 µM
CCRF-CEM; 48-hour incubation
  GI50: 1280 nM
  TGI: >1.00E − 04 mol/l
CCRF-CEM
  CC50: > 100 µM
LOX IMVI
  GI50: 1400 nM
  TGI: >1.00E − 04 mol/l
  CC50: > 100 µM
MALME-3M
  GI50: > 100 µM
  TGI: >1.00E − 04 mol/l
  CC50: > 100 µM
SK-MEL-2
  GI50: > 100 µM
  TGI: >1.00E − 04 mol/l
  CC50: > 100 µM
SK-MEL-5
  GI50: > 100000 nM
  TGI: >1.00E − 04 mol/l
  CC50: > 100 µM
UACC-257
  GI50: 49.8 µM
  TGI: >1.00E − 04 mol/l
  CC50: > 100 µM
RPMI-8226
  GI50: 1.65 µM
  TGI: >1.00E − 04 mol/l
  CC50: > 100 µM
HOP-92; 48-hour incubation
  GI50: 80.2 nM
  TGI: 8.99E − 05 mol/l
HOP-92; [1]
  CC50: > 100 µM
SN12C
  GI50: 13.3 µM
  TGI: >1.00E − 04 mol/l
  CC50: > 100 µM
TK-10
  GI50: 22.9 µM
  TGI: >1.00E − 04 mol/l
  CC50: > 100 µM
UO-31; 48-hour incubation
  GI50: 21.3 µM
  TGI: >1.00E − 04 mol/l
UO-31; [1]
  CC50: > 100 µM
MDA-N
  GI50: > 100 µM
  TGI: >1.00E − 04 mol/l
  CC50: > 100 µM
NCI-H226
  GI50: 75.9 µM
  TGI: >1.00E − 04 mol/l
  CC50: > 100 µM
CAKI-1
  GI50: 10.4 µM
  TGI: >1.00E − 04 mol/l
  CC50: > 100 µM
BT-549
  GI50: 14.5 µM
  TGI: 8.69E − 05 mol/l
  CC50: > 100 µM
A549/ATCC
  GI50: 346 nM
  TGI: >1.00E − 04 mol/l
  CC50: > 100 µM
RXF 393
  GI50: 10.2 µM
  TGI: 2.86E − 05 mol/l
  CC50: 80 µM
KM12
  GI50: 74.7 µM
  TGI: >1.00E − 04 mol/l
  CC50: > 100 µM
OVCAR-3
  GI50: > 100 µM
  TGI: >1.00E − 04 mol/l
  CC50: > 100 µM
OVCAR-4
  GI50: 58.5 µM
  TGI: >1.00E − 04 mol/l
  CC50: > 100 µM
OVCAR-5
  GI50: 89.6 µM
  TGI: >1.00E − 04 mol/l
  CC50: > 100 µM
HCT-15
  GI50: 14.4 µM
  TGI: >1.00E − 04 mol/l
HCT-15; [1]
  CC50: > 100 µM
COLO205
  GI50: 10.5 µM
  TGI: 3.88E − 05 mol/l
  CC50: > 100 µM
NCI/ADR-RES; 48-hour incubation
  TGI: >1.00E − 04 mol/l
NCI/ADR-RES
  CC50: > 100 µM
SF-268
  GI50: 745 nM
  TGI: >1.00E − 04 mol/l
  CC50: > 100 µM
SNB-75
  GI50: 20.4 µM
  TGI: >1.00E − 04 mol/l
  CC50: > 100 µM

## Nc1ccn(C2CCC(COP(=O)(O)OCC(O)COP(=O)(O)OCC3OC(n4cc(F)c(=O)[nH]c4=O)CC3O)O2)c(=O)n1 (racemic) [NSC 704533, 2′,3′-didesoxycytidylyl-(5′→1)-racglycerylyl-(3→5′)-5-fluoro-2′-desoxyuridine]
SR; 48-hour incubation
  GI50: < 10 nM
  TGI: >1.00E − 04 mol/l
SR
  CC50: > 100 µM
MOLT-4
  GI50: 104 nM
  TGI: >1.00E − 04 mol/l
  CC50: > 100 µM
CCRF-CEM; 48-hour incubation
  TGI: >1.00E − 04 mol/l
CCRF-CEM
  CC50: > 100 µM
LOX IMVI
  GI50: 10.1 nM
  TGI: >1.00E − 04 mol/l
  CC50: > 100 µM
MALME-3M
  GI50: > 100 µM
  TGI: >1.00E − 04 mol/l
  CC50: > 100 µM
SK-MEL-2
  GI50: 79.4 µM
  TGI: >1.00E − 04 mol/l
  CC50: > 100 µM
SK-MEL-5
  GI50: 689 nM
  TGI: >1.00E − 04 mol/l
  CC50: > 100 µM
UACC-257
  GI50: > 100 µM
  TGI: >1.00E − 04 mol/l
  CC50: > 100 µM
RPMI-8226
  GI50: 11 µM
  TGI: >1.00E − 04 mol/l
  CC50: > 100 µM
SN12C
  GI50: 0.173 µM
  TGI: >1.00E − 04 mol/l
  CC50: > 100 µM
TK-10
  GI50: 6.25 µM
  TGI: >1.00E − 04 mol/l
  CC50: > 100 µM
MDA-N
  GI50: 25.4 µM
  TGI: >1.00E − 04 mol/l
  CC50: > 100 µM
NCI-H226
  GI50: > 100 µM
  TGI: >1.00E − 04 mol/l
  CC50: > 100 µM
CAKI-1
  GI50: 1.44 µM
  TGI: >1.00E − 04 mol/l
  CC50: > 100 µM
BT-549
  GI50: 4.15 µM
  TGI: >1.00E − 04 mol/l
  CC50: > 100 µM
A549/ATCC
  GI50: 47.7 nM
  TGI: >1.00E − 04 mol/l
  CC50: > 100 µM
RXF 393
  GI50: 5.12 µM
  TGI: >1.00E − 04 mol/l
  CC50: > 100 µM
KM12
  GI50: 14.5 µM
  TGI: >1.00E − 04 mol/l
  CC50: > 100 µM
OVCAR-3
  GI50: 65.4 µM
  TGI: >1.00E − 04 mol/l
  CC50: > 100 µM
OVCAR-4
  GI50: > 100 µM
  TGI: >1.00E − 04 mol/l
  CC50: > 100 µM
OVCAR-5
  GI50: 12.6 µM
  TGI: >1.00E − 04 mol/l
  CC50: > 100 µM
HCT-15
  GI50: 17.9 µM
  TGI: >1.00E − 04 mol/l
COLO205
  GI50: 17.7 µM
  TGI: >1.00E − 04 mol/l
  CC50: > 100 µM
NCI/ADR-RES; 48-hour incubation
  GI50: 695 nM
  TGI: >1.00E − 04 mol/l
NCI/ADR-RES
  CC50: > 100 µM
SF-268
  GI50: < 10 nM
  TGI: >1.00E − 04 mol/l
  CC50: > 100 µM
SNB-75
  GI50: 1.59 µM
  TGI: >1.00E − 04 mol/l
  CC50: > 100 µM
